Data taken from patent US8247211B2, “Glycopeptide antibiotics” (American Cyanamid Company, priority 2001, dated 2012).
Converted amounts (≈) assume the structure as drawn.

Tests used:
Assay in all cases: In vitro antibacterial evaluation: minimum inhibitory concentration (MIC), broth dilution method
Assay type in all cases: cell-based
Details in all cases: 18 hours at 35° C.
[1] = tested on: Staphylococcus sp.
Procedure, shortened: (§1)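 Inoculum: 5×10^5 CFU/mL. Range: 64-0.06 μg/mL. Medium: Muller-Hinton II […]; NCCLS M7-A2 broth dilution. Endpoint: lowest concentration inhibiting growth. Strains include methicillin-, penicillin- and/or vancomycin-resistant clinical isolates.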

[2] = tested on: Streptococcus sp.
Procedure, shortened: as §1

[3] = tested on: Enterococcus sp.
Procedure, shortened: as §1

[4] = tested on: Escherichia coli
Procedure, shortened: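 Values are minimum inhibitory concentrations, meaning the smallest antibiotic concentration that stops growth of the organism. They come from broth dilution in Muller-Hinton II […] per NCCLS guidance (M7-A2), using 5×10^5 CFU/mL and concentrations from 64 to 0.06 μg/mL.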

MIC Coagulase Negative Staphylococcus (GC 4547) ([1]; Coagulase Negative Staphylococcus (GC 4547)): >64 µg/mL | MIC Coagulase Negative Staphylococcus (GC 4548) ([1]; Coagulase Negative Staphylococcus (GC 4548)): >64 µg/mL | MIC Coagulase Negative Staphylococcus (GC 4549) ([1]; Coagulase Negative Staphylococcus (GC 4549)): >64 µg/mL | MIC Coagulase Negative Staphylococcus (GC 4551) ([1]; Coagulase Negative Staphylococcus (GC 4551)): >64 µg/mL | MIC Coagulase Negative Staphylococcus (ID-3941) ([1]; Coagulase Negative Staphylococcus (ID-3941)): 64 µg/mL (≈ 45.4 µM) | MIC Staphylococcus aureus (ATCC 29213) ([1]; Staphylococcus aureus (ATCC 29213)): >64 µg/mL | MIC Staphylococcus aureus (GC 1131) ([1]; Staphylococcus aureus (GC 1131)): >64 µg/mL | MIC Staphylococcus aureus (GC 4541) ([1]; Staphylococcus aureus (GC 4541)): >64 µg/mL | MIC Staphylococcus aureus (GC 4542) ([1]; Staphylococcus aureus (GC 4542)): >64 µg/mL | MIC Staphylococcus aureus (GC 4544) ([1]; Staphylococcus aureus (GC 4544)): >64 µg/mL | MIC Staphylococcus aureus (GC 4545) ([1]; Staphylococcus aureus (GC 4545)): >64 µg/mL | MIC Staphylococcus aureus-SMITH (GC 4543) ([1]; Staphylococcus aureus-SMITH (GC 4543)): >64 µg/mL | MIC Streptococcus agalactiae (GC 4564) ([2]; Streptococcus agalactiae (GC 4564)): >64 µg/mL | MIC Streptococcus pneumoniae (GC 4565) ([2]; Streptococcus pneumoniae (GC 4565)): 64 µg/mL (≈ 45.4 µM) | MIC Streptococcus pyogenes (ID-3187) ([2]; Streptococcus pyogenes (ID-3187)): 64 µg/mL (≈ 45.4 µM) | MIC Enterococcus avium (GC 4558) ([3]; Enterococcus avium (GC 4558)): >64 µg/mL | MIC Enterococcus faecalis (ATCC 29212) ([3]; Enterococcus faecalis (ATCC 29212)): >64 µg/mL | MIC Enterococcus faecalis (GC 2242) ([3]; Enterococcus faecalis (GC 2242)): >64 µg/mL | MIC Enterococcus faecalis (GC 4552) ([3]; Enterococcus faecalis (GC 4552)): >64 µg/mL | MIC Enterococcus faecalis (GC 4553) ([3]; Enterococcus faecalis (GC 4553)): >64 µg/mL | MIC Enterococcus faecalis (GC 4554) ([3]; Enterococcus faecalis (GC 4554)): >64 µg/mL | MIC Enterococcus faecium (GC 2243) ([3]; Enterococcus faecium (GC 2243)): >64 µg/mL | MIC Enterococcus faecium (GC 4556) ([3]; Enterococcus faecium (GC 4556)): >64 µg/mL | MIC Enterococcus faecium (GC 4557) ([3]; Enterococcus faecium (GC 4557)): 64 µg/mL (≈ 45.4 µM) | MIC Escherichia coli (ATCC 25922) ([4]; Escherichia coli (ATCC 25922)): >64 µg/mL | MIC Escherichia coli (GC 4559) ([4]; Escherichia coli (GC 4559)): >64 µg/mL | MIC Escherichia coli (GC 4560) ([4]; Escherichia coli (GC 4560)): 4 µg/mL (≈ 2.84 µM)
SMILES: CCCCCNC(=O)OC1C(CO)OC(OC2C(CO)OC(Oc3ccc(CC4NC(=O)C(C(C)c5ccccc5)NC(=O)CNC(=O)C(CO)NC(=O)C(C(O)C5CNC(=N)N5C5OC(CO)C(O)C(O)C5O)NC(=O)C(C(O)C5CNC(=N)N5)NC4=O)cc3)C(O)C2O)C(O)C1O (stereo not drawn) [Example 251, α-O-[(Pentylamino)carbonyl]-cyclo[glycyl-β-methylphenylalanyl-O-(4-O-hexopyranosylhexopyranosyl)tyrosyl-3-(2-iminoimidazolidin-4-yl)seryl-3-(3-hexopyranosyl-2-iminoimidazolidin-4-yl)serylseryl]]
MIC Staphylococcus haemolyticus (GC 4546) ([1]; Staphylococcus haemolyticus (GC 4546)): >64 µg/mL
